pKi: −log10 of the molar value.
Legend:
CCK-B receptor = biological target: T1, CCK-B receptor (Cavia porcellus, UniProt H0VZC5); assay: CCK-B receptor binding affinity (guinea pig cortex assay)
T1 construct: guinea pig cortex assay; from tissue; host or cells: guinea pig cortex
T1 sequence (H0VZC5 1-426): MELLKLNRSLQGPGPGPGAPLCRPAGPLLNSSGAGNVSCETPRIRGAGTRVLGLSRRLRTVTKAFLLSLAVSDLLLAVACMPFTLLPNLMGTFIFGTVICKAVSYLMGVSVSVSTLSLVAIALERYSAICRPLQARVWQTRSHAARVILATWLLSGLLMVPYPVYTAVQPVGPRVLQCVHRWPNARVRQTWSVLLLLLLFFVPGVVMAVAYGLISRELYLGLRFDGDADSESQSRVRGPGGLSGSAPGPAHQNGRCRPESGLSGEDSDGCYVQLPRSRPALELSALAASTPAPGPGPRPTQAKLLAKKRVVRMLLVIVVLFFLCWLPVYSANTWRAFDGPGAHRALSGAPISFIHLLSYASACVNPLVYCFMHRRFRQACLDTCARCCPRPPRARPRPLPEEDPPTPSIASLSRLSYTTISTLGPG
Protocol: The affinity of the compound of the invention for the CCK-B receptor has also been determined using the guinea pig codex assay as described by G Dal Fornoto et al J. Pharmacol Exp. Ther., 261 1056-1063, 1992.
The binding affinity of the compounds of the invention for the CCK-B receptor (guinea pig cortex assay) was determined using the procedure of G Dal Forno et al J. Pharmacol. Exp & Ther. 261--1056-1063. The pKi values determined with respresentative compounds of invention were as follows: […]

dogs = assay: tolerability in dogs; assay type: in vivo; details: doses at which the compound exhibits CCK-B antagonist activity
Source text: (§1) The compounds of the invention are essentially non-toxic and therapeutically useful doses.

rats = assay: tolerability in rats; assay type: in vivo; details: doses at which the compound exhibits CCK-B antagonist activity
Source text: as §1

CN(C(=O)CN1C(=O)C(NC(=O)Nc2cccc(C#N)c2)N=C(CN2CCOCC2)c2ccccc21)c1ccccc1 (stereo not shown) [Example 18, 2-{3-[3-(3-Cyano-phenyl)-ureido]-5-morpholin-4-ylmethyl-2-oxo-2,3-dihydro-benzo [e][1,4]diazepin-1-yl}-N-methyl-N-phenyl-acetamide]
pKi (CCK-B receptor): 8.90

CC(C)NCC1=NC(NC(=O)Nc2cccc(C#N)c2)C(=O)N(CC(=O)N(C)c2ccccc2)c2ccccc21 (stereo not shown) [Example 3, 2-{-[3-(3-Cyano-phenyl)ureido]-5-(isopropylamino-methyl)-2-oxo-2,3-dihydro-benzo-[e][1,4]diazepin-1-yl}-N-methyl-N-phenyl-acetamide]
pKi (CCK-B receptor): 8.60

CN1CCN(CC2=NC(NC(=O)Nc3cccc(C#N)c3)C(=O)N(CC(=O)N(C)c3ccccc3)c3ccccc32)CC1 (stereo not shown) [Example 16, 2-{3-[3-(3-Cyano-phenyl)-ureido]-5-(4-methyl-piperazin-1-ylmethyl)-2-oxo-2,3-dihydro-benzo[e][1,4]diazepin-1-yl}-N-methyl-N-phenyl-acetamide]
pKi (CCK-B receptor): 8.30

CN(C(=O)CN1C(=O)C(NC(=O)Nc2cccc(C#N)c2)N=C(CN2CCCC2)c2ccccc21)c1ccccc1 (stereo not shown) [Example 2, 2-{3-[3-(3-Cyano-phenyl)-ureido]-2-oxo-5-pyrrolidin-1-ylmethyl-2,3-dihydro-[e][1,4]diazepin-1-yl}-N-methyl-N-phenyl-acetamide]
pKi (CCK-B receptor): 8.40

CN(C(=O)CN1C(=O)C(NC(=O)Nc2ccccc2)N=C(CN2CCOCC2)c2ccccc21)c1ccccc1 (stereo not shown) [Example 10, N-Methyl-2-[5-morpholin-4-ylmethyl-2-oxo-3-(3-phenyl-ureido)-2,3-dihydro-benzo[e][1,4]diazepin-1-yl]-N-methyl-N-phenyl-acetamide]
pKi (CCK-B receptor): 9.10

COc1cccc(NC(=O)NC2N=C(CN3CCOCC3)c3ccccc3N(CC(=O)N(C)c3ccccc3)C2=O)c1 (single isomer, unassigned; (+)) [Example 14, (+)-2-{3-[3-(3-Methoxy-phenyl)-ureido]-5-morpholin-4-ylmethyl-2-oxo-2.3-dihydro-benzo [e][1,4]diazepin-1-yl}-N-methyl-N-phenyl-acetamide]
untoward effects in dogs (dogs): no untoward effects were observed
pKi (CCK-B receptor): 9.00
untoward effects in rats (rats): no untoward effects were observed

CN(C(=O)CN1C(=O)C(NC(=O)Nc2cccc(C#N)c2)N=C(CN2CCSCC2)c2ccccc21)c1ccccc1 (stereo not shown) [Example 4, 2-{3-[3-(3-Cyano-phenyl)-ureido]-2-oxo-5-[1,4]thiazinan-4-ylmethyl-2,3-dihydro-benzo[e][1,4]diazepin-1-y}-N-methyl-N-phenyl-acetamide]
pKi (CCK-B receptor): 8.80

CC(C)(C)C(=O)CN1C(=O)C(NC(=O)Nc2cccc(C#N)c2)N=C(CN2CCOCC2)c2ccccc21 (stereo not shown) [Example 8, 1-(3-Cyano-phenyl)-3-[1-(3,3-dimethyl-2-oxo-butyl)-5-morpholin-4-ylmethyl-2-oxo-2,3-dihydro-1H-benzo[e][1,4]diazepin-3-yl]-urea]
pKi (CCK-B receptor): 8.80

O=C(Nc1cccc(-c2cnco2)c1)NC1N=C(CN2CCOCC2)c2ccccc2N(CC(=O)N2CCCC2)C1=O (stereo not shown) [Example 19, 1-[5-(Morpholin-4-yl-methyl)-2-oxo-1-(2-oxo-2-pyrrolidin-1-yl-ethyl)-2,3-dihydro-benzo[e][1,4]diazepin-3-yl]-3-(3-oxazol-5-yl-phenyl)-urea]
pKi (CCK-B receptor): 8.50

COc1cccc(NC(=O)NC2N=C(CN3CCOCC3)c3ccccc3N(CC(=O)N(C)c3ccccc3)C2=O)c1 (stereo not shown) [Example 9, 2-{3-[3-(3-Methoxy-phenyl)-ureido]-5-morpholin-4-ylmethyl-2-oxo-2,3-dihydro-benzo[e][1,4]diazepin-1-yl}-N-methyl-N-phenyl-acetamide]
pKi (CCK-B receptor): 8.90

CN(C(=O)CN1C(=O)C(NC(=O)Nc2cccc(N)c2)N=C(CN2CCOCC2)c2ccccc21)c1ccccc1 (stereo not shown) [Example 13, 2-{3-[3-(3-Amino-phenyl)-ureido]-5-morpholin-4-ylmethyl-2-oxo-2,3-dihydro-benzo[e][1,4]diazepin-1-yl}-N-methyl-N-phenyl-acetamide]
pKi (CCK-B receptor): 8.20

CN(C(=O)CN1C(=O)C(NC(=O)Nc2cccc(C(F)(F)F)c2)N=C(CN2CCOCC2)c2ccccc21)c1ccccc1 (stereo not shown) [Example 11, N-Methyl-2-{5-morpholin-4-ylmethyl-2-oxo-3-[3-(3-trifluoromethyl-phenyl)-ureido]-2,3-dihydro-benzo[e][1,4]diazepin-1-yl}-N-phenyl-acetamide]
pKi (CCK-B receptor): 9.30

COc1cccc(NC(=O)NC2N=C(CCN(C)C)c3ccccc3N(CC(=O)N(C)c3ccccc3)C2=O)c1 (stereo not shown) [Example 17]
pKi (CCK-B receptor): 8.60

CN(C(=O)CN1C(=O)C(NC(=O)Nc2cccc(C#N)c2)N=C(CN2CCCCC2)c2ccccc21)c1ccccc1 (stereo not shown) [Example 1, 2-{3-[3-(3-Cyano-phenyl)-ureido]-2-oxo-5-piperidin-1-ylmethyl-2,3-dihydro-benzo-[e][4.1]diazepin-1-yl}-N-methyl-N-phenyl-acetamide]
pKi (CCK-B receptor): 9.00

CN(C(=O)CN1C(=O)C(NC(=O)Nc2cccc(C#N)c2)N=C(CN2CCOCC2)c2ccccc21)c1ccc(F)cc1 (stereo not shown) [Example 6, 2-{3-[3-(3-Cyano-phenyl)-ureido]-5-morpholin-4-ylmethyl-2-oxo-2,3-dihydro-benzo-[e][1,4]diazepin-1-yl}-N-(4-fluoro-phenyl)-N-methyl-acetamide]
pKi (CCK-B receptor): 8.70

CCN(C(=O)CN1C(=O)C(NC(=O)Nc2cccc(C#N)c2)N=C(CN2CCOCC2)c2ccccc21)c1ccccc1 (stereo not shown) [Example 7, 2-{3-[3-(3-Cyano-phenyl)-ureido]-5-morpholin-4-ylmethyl-2-oxo-2,3-dihydro-benzo[e][1,4]diazepin-1yl}-N-ethyl-N-phenyl-acetamide]
pKi (CCK-B receptor): 8.80

C[C@@H]1CC[C@H](C)N1C(=O)CN1C(=O)C(NC(=O)Nc2cccc(C#N)c2)N=C(CN2CCOCC2)c2ccccc21 (stereo partly shown) [Example 5]
pKi (CCK-B receptor): 8.50

Reference: patent US5569654A, “Benzodiazepinones” (Glaxo Group Limited, priority 1992, dated 1996)
